According to patent US9730447B2, “Fungicidal amides” (E I DU PONT DE NEMOURS AND COMPANY, priority 2013, dated 2017):

Tests used:
Format in all cases: in vivo
[1] = test system: Puccinia recondite f. sp. tritici; test: Test D: preventive spray on wheat seedlings, Puccinia recondite f. sp. tritici (wheat leaf rust), visual disease rating; conditions: 100 = 100% disease control, 0 = no control, unmarked values
How it was run: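 Wheat seedlings sprayed to run-off with 40 ppm (160 g ai/ha) or 10 ppm (40 g ai/ha) suspension in acetone/water with 250 ppm surfactant, inoculated next day with leaf rust spores. After 24 h saturated at 20 °C then 6 days at 20 °C, visual rating of disease control (0–100) relative to controls.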

[2] = test system: Erysiphe graminis f. sp. tritici; test: Test E: preventive spray on wheat seedlings, Erysiphe graminis f. sp. tritici (wheat powdery mildew), visual disease rating; conditions: 100 = 100% disease control, 0 = no control, unmarked values
How it was run: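 Wheat seedlings were sprayed to run-off with 40 or 10 ppm suspension (160 or 40 g ai/ha) and dusted with spores the next day. They were then kept 8 days at 20 °C. Disease was rated visually as % control relative to untreated controls (0–100).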

[3] = test system: Stagonospora nodorum (also known as Septoria nodorum); test: Test B: preventive spray on wheat seedlings, Stagonospora nodorum (wheat glume blotch), visual disease rating; conditions: 100 = 100% disease control, 0 = no control, unmarked values
How it was run: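 Compounds in acetone/water (50/50) with 250 ppm Trem 014 surfactant were sprayed to run-off at 40 ppm (160 g ai/ha) or 10 ppm (40 g ai/ha). Seedlings were inoculated with S. nodorum spores the next day, then held 48 h saturated at 20 °C and 6 days in a growth chamber at 20 °C. Visual rating as % disease control vs untreated.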

[4] = test system: Septoria tritici; test: Test C: preventive spray on wheat seedlings, Septoria tritici (wheat leaf blotch), visual disease rating; conditions: 100 = 100% disease control, 0 = no control, unmarked values
How it was run: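 Wheat seedlings sprayed to run-off at 40 ppm or 10 ppm (160 or 40 g ai/ha) in acetone/water with surfactant, inoculated with Septoria tritici spores next day. Held 48 h saturated at 24 °C, then 21 days at 20 °C. Visual rating scored as % disease control relative to controls.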

[5] = test system: Botrytis cinerea; test: Test A: preventive spray on tomato seedlings, Botrytis cinerea (gray mold), visual disease rating; conditions: 100 = 100% disease control, 0 = no control relative to controls, unmarked values
How it was run: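 Tomato seedlings sprayed to run-off with 40 ppm or 10 ppm suspensions (160 or 40 g ai/ha) in acetone/water with 250 ppm surfactant. Inoculated with B. cinerea spores next day, held saturated at 20 °C for 48 h, then 27 °C for 2 days. Visual rating, 0–100% disease control relative to controls.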

## O=C(Nc1ccccc1-c1ccc(-n2cc(-c3cc(F)cc(F)c3)cn2)nc1)c1ncccc1C(F)(F)F [compound 28]
[1]
  Test D disease control rating: 99%
[2]
  Test E disease control rating: 96%
[3]
  Test B disease control rating: 99%
[4]
  Test C disease control rating: 100%
[5]
  Test A disease control rating: 99%

## O=C(Nc1ccccc1-c1ccc(-n2cc(-c3ccccc3F)cn2)nc1)c1ncccc1C(F)(F)F [compound 29]
[1]
  Test D disease control rating: 89%
[2]
  Test E disease control rating: 82%
[3]
  Test B disease control rating: 99%
[4]
  Test C disease control rating: 100%
[5]
  Test A disease control rating: 77%

## O=C(Nc1ccccc1-c1ccc(-n2cc(-c3ccc(F)cc3)cn2)nc1)c1ncccc1C(F)(F)F [compound 30]
[1]
  Test D disease control rating: 89%
[2]
  Test E disease control rating: 69%
[3]
  Test B disease control rating: 82%
[4]
  Test C disease control rating: 91%
[5]
  Test A disease control rating: 33%

## Cn1cc(C(=O)Nc2ccccc2-c2ccc(-n3cc(Br)cn3)nc2)c(C(F)F)n1 [compound 31]
[1]
  Test D disease control rating: 100%
[2]
  Test E disease control rating: 99%
[3]
  Test B disease control rating: 100%
[4]
  Test C disease control rating: 100%
[5]
  Test A disease control rating: 100%

## O=C(Nc1ccccc1-c1ccc(-n2cc(Cl)cn2)nc1)c1ncccc1C(F)(F)F [compound 32]
[1]
  Test D disease control rating: 100%
[2]
  Test E disease control rating: 99%
[3]
  Test B disease control rating: 100%
[4]
  Test C disease control rating: 100%
[5]
  Test A disease control rating: 99%

## O=C(Nc1ccccc1-c1cnc(-n2ccc(C(F)(F)F)n2)c(Cl)c1)c1ccccc1C(F)(F)F [compound 33]
[1]
  Test D disease control rating: 100%
[2]
  Test E disease control rating: 99%
[3]
  Test B disease control rating: 60%
[4]
  Test C disease control rating: 100%
[5]
  Test A disease control rating: 15%

## Cn1cc(C(=O)Nc2ccccc2-c2cnc(-n3ccc(C(F)(F)F)n3)c(Cl)c2)c(C(F)F)n1 [compound 35]
[1]
  Test D disease control rating: 100%
[2]
  Test E disease control rating: 100%
[3]
  Test B disease control rating: 100%
[4]
  Test C disease control rating: 100%
[5]
  Test A disease control rating: 97%

## Cc1cc(-c2ccccc2NC(=O)c2ccccc2C(F)(F)F)cnc1-n1ccc(C(F)(F)F)n1 [compound 36]
[1]
  Test D disease control rating: 100%
[2]
  Test E disease control rating: 99%
[3]
  Test B disease control rating: 98%
[4]
  Test C disease control rating: 100%
[5]
  Test A disease control rating: 28%

## Cc1cc(-c2ccccc2NC(=O)c2ncccc2C(F)(F)F)cnc1-n1ccc(C(F)(F)F)n1 [compound 37]
[1]
  Test D disease control rating: 100%
[2]
  Test E disease control rating: 100%
[3]
  Test B disease control rating: 100%
[4]
  Test C disease control rating: 100%
[5]
  Test A disease control rating: 95%

## Cc1cc(-c2ccccc2NC(=O)c2cn(C)nc2C(F)F)cnc1-n1ccc(C(F)(F)F)n1 [compound 38]
[1]
  Test D disease control rating: 100%
[2]
  Test E disease control rating: 100%
[3]
  Test B disease control rating: 100%
[4]
  Test C disease control rating: 100%
[5]
  Test A disease control rating: 90%

## O=C(Nc1ccccc1-c1ccc(-n2ccc(-c3ccccc3)n2)nc1)c1ncccc1C(F)(F)F [compound 39]
[1]
  Test D disease control rating: 92%
[2]
  Test E disease control rating: 89%
[3]
  Test B disease control rating: 0%
[4]
  Test C disease control rating: 92%
[5]
  Test A disease control rating: 45%

## Cn1cc(C(=O)Nc2ccccc2-c2ccc(-n3ccc(-c4ccccc4)n3)nc2)c(C(F)F)n1 [compound 41]
[1]
  Test D disease control rating: 100%
[2]
  Test E disease control rating: 84%
[3]
  Test B disease control rating: 40%
[4]
  Test C disease control rating: 100%
[5]
  Test A disease control rating: 99%

## O=C(Nc1ccccc1-c1ccc(-n2ccc(-c3ccccc3)n2)nc1)c1ccccc1C(F)(F)F [compound 42]
[1]
  Test D disease control rating: 68%
[2]
  Test E disease control rating: 21%
[3]
  Test B disease control rating: 0%
[4]
  Test C disease control rating: 87%
[5]
  Test A disease control rating: 40%

## Cc1cnn(-c2ccc(-c3ccccc3NC(=O)c3ccccc3C(F)(F)F)cn2)c1 [compound 43]
[1]
  Test D disease control rating: 74%
[2]
  Test E disease control rating: 92%
[3]
  Test B disease control rating: 99%
[4]
  Test C disease control rating: 98%
[5]
  Test A disease control rating: 94%

## Cc1cnn(-c2ccc(-c3ccccc3NC(=O)c3ccccc3C(F)(F)F)cn2)c1 [compound 44]
[1]
  Test D disease control rating: 99%
[2]
  Test E disease control rating: 0%
[3]
  Test B disease control rating: 0%
[4]
  Test C disease control rating: 62%
[5]
  Test A disease control rating: 40%

## Cc1cnn(-c2ccc(-c3ccccc3NC(=O)c3cn(C)nc3C(F)F)cn2)c1 [compound 45]
[1]
  Test D disease control rating: 100%
[2]
  Test E disease control rating: 99%
[3]
  Test B disease control rating: 98%
[4]
  Test C disease control rating: 100%
[5]
  Test A disease control rating: 99%

## Cc1cnn(-c2ccc(-c3ccccc3NC(=O)c3ncccc3Cl)cn2)c1 [compound 46]
[1]
  Test D disease control rating: 97%
[2]
  Test E disease control rating: 0%
[3]
  Test B disease control rating: 0%
[4]
  Test C disease control rating: 8%
[5]
  Test A disease control rating: 21%

## O=C(Nc1ccccc1-c1ccc(-n2cc(Br)cn2)nc1)c1ncccc1Cl [compound 47]
[1]
  Test D disease control rating: 100%
[2]
  Test E disease control rating: 0%
[3]
  Test B disease control rating: 0%
[4]
  Test C disease control rating: 82%
[5]
  Test A disease control rating: 91%

## COc1cc(C(F)(F)F)nn1-c1ccc(-c2ccccc2NC(=O)c2ncccc2C(F)(F)F)cn1 [compound 48]
[1]
  Test D disease control rating: 0%
[2]
  Test E disease control rating: 56%
[3]
  Test B disease control rating: 0%
[4]
  Test C disease control rating: 73%
[5]
  Test A disease control rating: 0%

## Cc1cc(C)n(-c2ccc(-c3ccccc3NC(=O)c3ncccc3C(F)(F)F)cn2)n1 [compound 52]
[1]
  Test D disease control rating: 96%
[2]
  Test E disease control rating: 50%
[3]
  Test B disease control rating: 0%
[4]
  Test C disease control rating: 99%
[5]
  Test A disease control rating: 36%
